Measured values taken from DBAASP.
≈ marks a conversion by molar mass, not a printed value.

Experiments:
Experiment in all cases: ≥ marks a high value that may be exact or a test limit, other limits are often not marked, values filed in µg/mL are converted to µM
[1] = tested on: Staphylococcus aureus ATCC 43300
[2] = tested on: Escherichia coli K88
[3] = tested on: Escherichia coli K99
[4] = tested on: Staphylococcus epidermidis ATCC 12228
[5] = tested on: Candida tropicalis CGMCC 2.1975
[6] = tested on: Salmonella enterica subsp. enterica serovar Pullorum ATCC 7913
[7] = tested on: Candida parapsilosis CGMCC 2.3989
[8] = tested on: Escherichia coli UB1005
[9] = tested on: Staphylococcus aureus ATCC 25923
[10] = tested on: Salmonella enterica subsp. enterica serovar Typhimurium C77-31
[11] = tested on: Candida albicans CGMCC 2.2086
[12] = tested on: Pseudomonas aeruginosa ATCC 27853
[13] = tested on: Escherichia coli 078
[14] = tested on: Salmonella enterica subsp. enterica serovar Typhimurium ATCC 14028
[15] = tested on: Salmonella enterica serovar typhimurium MS7953s
[16] = tested on: Salmonella enterica subsp. enterica serovar Typhimurium ATCC 14028s
[17] = tested on: Aeromonas salmonicida 99-1
[18] = tested on: Escherichia coli DC2
[19] = tested on: Escherichia coli CGSC 4908
[20] = tested on: Staphylococcus epidermidis C621
[21] = tested on: Pseudomonas aeruginosa K799
[22] = tested on: Staphylococcus aureus C623
[23] = tested on: Pseudomonas aeruginosa Z61
[24] = tested on: Candida albicans C627
[25] = tested on: Aeromonas salmonicida 97-4
[26] = tested on: Escherichia coli INV-a
[27] = tested on: Lactococcus lactis MG1363
[28] = tested on: Staphylococcus pseudintermedius
[29] = tested on: Pseudomonas aeruginosa
[30] = tested on: Staphylococcus aureus ATCC 29213
[31] = tested on: Acinetobacter baumannii CCARM 12035
[32] = tested on: Pseudomonas aeruginosa KCTC 2004
[33] = tested on: Bacillus subtilis KCTC 3068
[34] = tested on: Staphylococcus aureus KCTC 1621
[35] = tested on: Staphylococcus epidermidis KCTC 1917
[36] = tested on: Salmonella typhimurium KCTC 1926
[37] = tested on: Staphylococcus aureus CCARM 3126
[38] = tested on: Escherichia coli CCARM 1229
[39] = tested on: Acinetobacter baumannii KCTC 2508
[40] = tested on: Escherichia coli KCTC 1682
[41] = tested on: Salmonella typhimurium CCARM 8007
[42] = tested on: Pseudomonas aeruginosa CCARM 2002
[43] = tested on: Escherichia coli J2210
[44] = tested on: Escherichia coli O157:H7
[45] = tested on: Salmonella typhimurium SL1344
[46] = tested on: Escherichia coli MC1061
[47] = tested on: Salmonella enterica subsp. enterica serovar Enteritidis MH91989
[48] = tested on: Escherichia coli JW0013
[49] = tested on: Escherichia coli JJ2487

## CC[C@H](C)[C@H](NC(=O)[C@H](CCCN=C(N)N)NC(=O)[C@H](C)NC(=O)[C@H](C)N)C(=O)N[C@H](C(=O)N[C@@H](CC(C)C)C(=O)N[C@@H](CCCN=C(N)N)C(=O)NCC(=O)N[C@@H](CCCN=C(N)N)C(=O)N[C@@H](Cc1ccccc1)C(=O)N[C@@H](CCCN=C(N)N)C(N)=O)[C@@H](C)CC [AARIILRGRFR]
[1]
  MIC: 8 µM (≈ 10.6 µg/mL)
[2]
  MIC: 2 µM (≈ 2.66 µg/mL)
[3]
  MIC: 2 µM (≈ 2.66 µg/mL)
[4]
  MIC: 8 µM (≈ 10.6 µg/mL)
[5]
  MIC: 16 µM (≈ 21.2 µg/mL)
[6]
  MIC: 4 µM (≈ 5.31 µg/mL)
[7]
  MIC: ≥ 64 µM
[8]
  MIC: 4 µM (≈ 5.31 µg/mL)
[9]
  MIC: 16 µM (≈ 21.2 µg/mL)
[10]
  MIC: 8 µM (≈ 10.6 µg/mL)
[11]
  MIC: ≥ 128 µM
[12]
  MIC: 16 µM (≈ 21.2 µg/mL)
[13]
  MIC: 4 µM (≈ 5.31 µg/mL)
[14]
  MIC: 4 µM (≈ 5.31 µg/mL)

## CC[C@H](C)[C@H](NC(=O)CNC(=O)[C@H](Cc1cnc[nH]1)NC(=O)[C@H](CC(C)C)NC(=O)CNC(=O)[C@H](CC(C)C)NC(=O)[C@H](CCCCN)NC(=O)[C@H](Cc1ccccc1)NC(=O)[C@H](CC(C)C)NC(=O)[C@H](CCCCN)NC(=O)CNC(=O)[C@H](Cc1c[nH]c2ccccc12)NC(=O)[C@H](Cc1ccccc1)NC(=O)CN)C(=O)NCC(=O)N[C@@H](CC(C)C)C(=O)N[C@@H](CC(C)C)C(=O)N[C@@H](Cc1cnc[nH]1)C(=O)N[C@@H](CC(C)C)C(=O)N[C@@H](Cc1cnc[nH]1)C(=O)N[C@@H](CC(C)C)C(C)=O [GFWGKLFKLGLHGIGLLHLHL]
[15]
  MIC: 1.7 µM (≈ 4 µg/mL)
[16]
  MIC: 6.79 µM (≈ 16 µg/mL)
[17]
  MIC: 3.39 µM (≈ 7.99 µg/mL)
[18]
  MIC: 3.39 µM (≈ 7.99 µg/mL)
[8]
  MIC: 3.39 µM (≈ 7.99 µg/mL)
[19]
  MIC: 3.39 µM (≈ 7.99 µg/mL)
[20]
  MIC: 1.7 µM (≈ 4 µg/mL)
[21]
  MIC: 3.39 µM (≈ 7.99 µg/mL)
[22]
  MIC: 1.7 µM (≈ 4 µg/mL)
[23]
  MIC: 1.7 µM (≈ 4 µg/mL)
[24]
  MIC: 6.79 µM (≈ 16 µg/mL)
[25]
  MIC: 6.79 µM (≈ 16 µg/mL)

## CC[C@H](C)[C@H](N)C(=O)N[C@@H](CC(N)=O)C(=O)N[C@@H](Cc1c[nH]c2ccccc12)C(=O)N[C@@H](CCCCN)C(=O)NCC(=O)N[C@H](C(=O)N[C@@H](C)C(=O)N[C@@H](CC(C)C)C(=O)N[C@@H](CCSC)C(=O)N[C@@H](C)C(=O)N[C@@H](CCCCN)C(=O)N[C@@H](CCCCN)C(=O)N[C@@H](CC(C)C)C(=O)N[C@@H](CC(C)C)C(N)=O)[C@@H](C)CC [INWKGIALMAKKLL]
[26]
  MIC: 7 µM (≈ 11.2 µg/mL)
[27]
  MIC: 2.5 µM (≈ 4 µg/mL)

## CC(=O)N[C@@H](CCCN=C(N)N)C(=O)N[C@@H](CCCCN)C(=O)N[C@@H](Cc1ccccc1)C(=O)N[C@@H](CC(C)C)C(=O)N[C@@H](CCCN=C(N)N)C(=O)N[C@@H](CCCN=C(N)N)C(=O)N[C@@H](CCCN=C(N)N)C(=O)NCC(=O)N[C@@H](CCC(=O)O)C(=O)N[C@H](C(=O)N[C@@H](C)C(=O)N[C@@H](Cc1cnc[nH]1)C(=O)N[C@@H](Cc1ccccc1)C(=O)N[C@@H](CO)C(=O)N[C@@H](CCC(N)=O)C(=O)N[C@@H](CCCCN)C(=O)N[C@@H](CO)C(=O)N[C@@H](CC(C)C)C(=O)NCC(=O)N[C@@H](CC(C)C)C(=O)N[C@@H](Cc1ccc(O)cc1)C(=O)N[C@@H](CS)C(=O)N[C@@H](Cc1c[nH]c2ccccc12)C(=O)N[C@@H](Cc1c[nH]c2ccccc12)C(=O)N[C@@H](Cc1c[nH]c2ccccc12)C(N)=O)C(C)C [RKFLRRRGEVAHFSQKSLGLYCWWW]
[28]
  MIC: ≥ 39.9 µM
[29]
  MIC: 39.9 µM (≈ 130 µg/mL)
[12]
  MIC: 19.9 µM (≈ 64.8 µg/mL)
[30]
  MIC: 19.9 µM (≈ 64.8 µg/mL)

## CC[C@H](C)[C@H](NC(=O)[C@H](CCCCN)NC(=O)[C@H](Cc1c[nH]c2ccccc12)NC(=O)[C@@H](N)CCCN=C(N)N)C(=O)N[C@@H](Cc1ccccc1)C(=O)N[C@@H](CCCCN)C(=O)N[C@@H](CCCCN)C(=O)N[C@H](C(=O)N[C@H](C(=O)N[C@@H](CCCCN)C(=O)N[C@@H](CCCCN)C(=O)N[C@@H](Cc1c[nH]c2ccccc12)C(N)=O)C(C)C)C(C)C [RWKIFKKVVKKW]
[31]
  MIC: 4 µM (≈ 6.58 µg/mL)
[32]
  MIC: 4 µM (≈ 6.58 µg/mL)
[33]
  MIC: 8 µM (≈ 13.2 µg/mL)
[34]
  MIC: 4 µM (≈ 6.58 µg/mL)
[35]
  MIC: 8 µM (≈ 13.2 µg/mL)
[36]
  MIC: 8 µM (≈ 13.2 µg/mL)
[37]
  MIC: 8 µM (≈ 13.2 µg/mL)
[38]
  MIC: 8 µM (≈ 13.2 µg/mL)
[39]
  MIC: 4 µM (≈ 6.58 µg/mL)
[40]
  MIC: 4 µM (≈ 6.58 µg/mL)
[41]
  MIC: 8 µM (≈ 13.2 µg/mL)
[42]
  MIC: 8 µM (≈ 13.2 µg/mL)

## CC[C@H](C)[C@H](NC(=O)[C@H](CCCN=C(N)N)NC(=O)[C@H](CCCN=C(N)N)NC(=O)[C@@H]1CCCN1C(=O)[C@@H]1CCCN1C(=O)[C@H](CCCN=C(N)N)NC(=O)[C@@H]1CCCN1C(=O)[C@H](CCCN=C(N)N)NC(=O)[C@@H]1CCCN1C(=O)[C@H](CCCN=C(N)N)NC(=O)[C@H](Cc1ccc(O)cc1)NC(=O)[C@@H]1CCCN1C(=O)[C@@H]1CCCN1C(=O)[C@H](CCCCN)NC(=O)[C@H](CC(=O)O)NC(=O)[C@@H](N)C(C)C)C(=O)N[C@@H](Cc1ccc(O)cc1)C(=O)N[C@@H](CC(N)=O)C(=O)N[C@@H](CCCN=C(N)N)C(N)=O [VDKPPYRPRPRPPRRIYNR]
[43]
  MIC: 0.16 µM (≈ 0.39 µg/mL)
[44]
  MIC: 0.986 µM (≈ 2.4 µg/mL)
[45]
  MIC: 0.173 µM (≈ 0.42 µg/mL)
[46]
  MIC: 0.0822 µM (≈ 0.2 µg/mL)
[47]
  MIC: 0.246 µM (≈ 0.6 µg/mL)
[48]
  MIC: 0.173 µM (≈ 0.42 µg/mL)
[49]
  MIC: 0.16 µM (≈ 0.39 µg/mL)
